System: GATA3 protein
Assay: GATA3 Western Blot in transfected MCF7 cells (6-well plate)
Assay type: cell-based, human
Details: 30 nM, 48 hours, average band ratio ± S.D.
Procedure: MCF7 cells were plated in 6-well plates at final counts of 70,000 cells/well in 2 ml of complete growth media. Transfection was performed using 2.5 uL of RNAiMax per well. Final concentration of siNAs was 30 nM (screen) and 30, 0.3, and 0.003 nM (dose response study). Protein lysates were harvested 24, 48, and 72 hours post-transfection (screen) and 72 hours post-transfection (dose response study). Protein lysates were prepared using Cell Disruption Buffer from the PARIS kit (Ambion, cat #1921) according to manufacturer's instructions. Protein concentration was measured using a Bradford Quick Start Kit (Bio-Rad, cat#500-0205).
The protein source for the Western Blot experiments were from transfection of MCF7 cells in a 6 well plate, as described above.
Protein samples were diluted 1:1 in 2× Laemmli buffer with 5% β-mercapto-ethanol and incubated at 95° C. for 5 minutes. 20-40 ug of protein was loaded in each lane of 10% Tris-HCl gel. One lane was designated for MagicMark Protein Standard (Invitrogen # LC5602). The gel was run at 100V for approximately 2 hours. Protein was transferred to a PVDF membrane at 100V for 60 minutes. Once the transfer was finished, the membrane was blocked in 1% Casein in PBS (BioRad Cat#161-0783) for 1 hour on a plate rocker at room temperature followed by the overnight incubation at 4° C. with mouse monoclonal anti-GATA3 primary antibody (Santa Cruz Biotechnology, cat# HG3-31) diluted 1:500 in 1% Casein in PBS. On the next day, the blot was washed 4×5 minutes in PBST (0.1% Tween-20 in PBS) solution and incubated for 30 minutes at room temperature with goat anti-mouse secondary antibody (Pierce Biotechnology, cat#3 31430) diluted 1:20,000 in 1% Casein. […]
The protein bands were quantified by computing their density which is defined by the ratio between the total intensity of all pixels and the area of the rectangle drawn around each band (intensity/mm^2). The density was calculated by the BioRad software.
The level of protein was quantified using the Bio-Rad VersaDoc Imager according to the protocols of that piece of equipment. […]

30263-DC: GATA3 siNA duplex, site 817: sense B cGccucuGcuucAuGGAuc TTB (SEQ 79), antisense GAUccAuGAAGcAGAGGcGUU (SEQ 80) (sense CGCCUCUGCUUCAUGGAUCTT; antisense GAUCCAUGAAGCAGAGGCGUU; chemistry not fully specified)
Density (GATA3)/Density (α-Tubulin): 0.016 ± 0.0003

— patent US20120029054A1, “RNA Interference Mediated Inhibition of GATA Binding Protein 3 (GATA3) Gene Expression Using Short Intefering Nucleic Acid (siNA)” (Merck Sharp & Dohme Corp., priority 2009, published 2012)
